BigSolDB 2.1

O=C1CCCC(=O)O1
solubility (mole fraction) (in 1,2-dichloroethane, 278.15 K): 0.448 | solubility (mole fraction) (in 1,2-dichloroethane, 283.15 K): 0.555 | solubility (mole fraction) (in 1,2-dichloroethane, 288.15 K): 0.631 | solubility (mole fraction) (in 1,2-dichloroethane, 293.15 K): 0.7 | solubility (mole fraction) (in 1,2-dichloroethane, 298.15 K): 0.773 | solubility (mole fraction) (in 1,2-dichloroethane, 303.15 K): 0.807 | solubility (mole fraction) (in 1,2-dichloroethane, 308.15 K): 0.866 | solubility (mole fraction) (in 1,2-dichloroethane, 313.15 K): 0.922 | solubility (mole fraction) (in DMAc, 278.15 K): 0.73 | solubility (mole fraction) (in DMAc, 283.15 K): 0.789 | solubility (mole fraction) (in DMAc, 288.15 K): 0.83 | solubility (mole fraction) (in DMAc, 293.15 K): 0.852 | solubility (mole fraction) (in DMAc, 298.15 K): 0.877 | solubility (mole fraction) (in DMAc, 303.15 K): 0.905 | solubility (mole fraction) (in DMAc, 308.15 K): 0.923 | solubility (mole fraction) (in DMAc, 313.15 K): 0.935 | solubility (mole fraction) (in DMF, 278.15 K): 0.549 | solubility (mole fraction) (in DMF, 283.15 K): 0.594 | solubility (mole fraction) (in DMF, 288.15 K): 0.663 | solubility (mole fraction) (in DMF, 293.15 K): 0.705 | solubility (mole fraction) (in DMF, 298.15 K): 0.74 | solubility (mole fraction) (in DMF, 303.15 K): 0.795 | solubility (mole fraction) (in DMF, 308.15 K): 0.822 | solubility (mole fraction) (in DMF, 313.15 K): 0.87 | solubility (mole fraction) (in acetone, 278.15 K): 0.444 | solubility (mole fraction) (in acetone, 283.15 K): 0.524 | solubility (mole fraction) (in acetone, 288.15 K): 0.623 | solubility (mole fraction) (in acetone, 293.15 K): 0.676 | solubility (mole fraction) (in acetone, 298.15 K): 0.76 | solubility (mole fraction) (in acetone, 303.15 K): 0.815 | solubility (mole fraction) (in acetone, 308.15 K): 0.884 | solubility (mole fraction) (in acetone, 313.15 K): 0.918 | solubility (mole fraction) (in acetonitrile, 278.15 K): 0.591 | solubility (mole fraction) (in acetonitrile, 283.15 K): 0.648 | solubility (mole fraction) (in acetonitrile, 288.15 K): 0.705 | solubility (mole fraction) (in acetonitrile, 293.15 K): 0.764 | solubility (mole fraction) (in acetonitrile, 298.15 K): 0.809 | solubility (mole fraction) (in acetonitrile, 303.15 K): 0.844 | solubility (mole fraction) (in acetonitrile, 308.15 K): 0.879 | solubility (mole fraction) (in acetonitrile, 313.15 K): 0.918 | solubility (mole fraction) (in dichloromethane, 278.15 K): 0.425 | solubility (mole fraction) (in dichloromethane, 283.15 K): 0.51 | solubility (mole fraction) (in dichloromethane, 288.15 K): 0.597 | solubility (mole fraction) (in dichloromethane, 293.15 K): 0.641 | solubility (mole fraction) (in dichloromethane, 298.15 K): 0.709 | solubility (mole fraction) (in dichloromethane, 303.15 K): 0.78 | solubility (mole fraction) (in dichloromethane, 308.15 K): 0.824 | solubility (mole fraction) (in dichloromethane, 313.15 K): 0.896 | solubility (mole fraction) (in ethyl acetate, 278.15 K): 0.107 | solubility (mole fraction) (in ethyl acetate, 283.15 K): 0.156 | solubility (mole fraction) (in ethyl acetate, 288.15 K): 0.206 | solubility (mole fraction) (in ethyl acetate, 293.15 K): 0.273 | solubility (mole fraction) (in ethyl acetate, 298.15 K): 0.383 | solubility (mole fraction) (in ethyl acetate, 303.15 K): 0.506 | solubility (mole fraction) (in ethyl acetate, 308.15 K): 0.618 | solubility (mole fraction) (in ethyl acetate, 313.15 K): 0.75 | solubility (mole fraction) (in methyl acetate, 278.15 K): 0.294 | solubility (mole fraction) (in methyl acetate, 283.15 K): 0.384 | solubility (mole fraction) (in methyl acetate, 288.15 K): 0.444 | solubility (mole fraction) (in methyl acetate, 293.15 K): 0.551 | solubility (mole fraction) (in methyl acetate, 298.15 K): 0.646 | solubility (mole fraction) (in methyl acetate, 303.15 K): 0.7 | solubility (mole fraction) (in methyl acetate, 308.15 K): 0.808 | solubility (mole fraction) (in methyl acetate, 313.15 K): 0.874 | solubility (mole fraction) (in n-butyl acetate, 278.15 K): 0.12 | solubility (mole fraction) (in n-butyl acetate, 283.15 K): 0.145 | solubility (mole fraction) (in n-butyl acetate, 288.15 K): 0.181 | solubility (mole fraction) (in n-butyl acetate, 293.15 K): 0.246 | solubility (mole fraction) (in n-butyl acetate, 298.15 K): 0.322 | solubility (mole fraction) (in n-butyl acetate, 303.15 K): 0.451 | solubility (mole fraction) (in n-butyl acetate, 308.15 K): 0.582 | solubility (mole fraction) (in n-butyl acetate, 313.15 K): 0.736 | solubility (mole fraction) (in n-propyl acetate, 278.15 K): 0.234 | solubility (mole fraction) (in n-propyl acetate, 283.15 K): 0.301 | solubility (mole fraction) (in n-propyl acetate, 288.15 K): 0.407 | solubility (mole fraction) (in n-propyl acetate, 293.15 K): 0.505 | solubility (mole fraction) (in n-propyl acetate, 298.15 K): 0.592 | solubility (mole fraction) (in n-propyl acetate, 303.15 K): 0.712 | solubility (mole fraction) (in n-propyl acetate, 308.15 K): 0.817 | solubility (mole fraction) (in n-propyl acetate, 313.15 K): 0.908
